Results as given in US11130741B2 (Bioimics AB, priority 2016, dated 2021).
In brackets after ≈: the same amount, converted by molar mass. Like-named read-outs stand apart in the source and are kept apart here.

Legend:
[1] = system: E. coli RNase P RNA, M1 RNA; experiment: Inhibition of bacterial RNase P activity, IC50 determination (cleavage of pATSerUG by M1 RNA); format: biochemical; details: NI = No inhibition
[2] = system: Enterococcus faecalis (ATCC29212); experiment: MIC, broth microdilution (CLSI), Enterococcus faecalis ATCC29212; format: cell-based; details: read-out: MIC E. faecalis ATCC 29212
[3] = system: Pseudomonas aeruginosa (ATCC27853); experiment: microbe, parasite or virus in culture; format: cell-based; details: read-out: MIC P. aeruginosa ATCC 27853
[4] = system: Staphylococcus aureus subsp. aureus (ATCC29213); experiment: MIC, broth microdilution (CLSI), Staphylococcus aureus subsp. aureus ATCC29213; format: cell-based
H. influenzae ATCC 49247 = experiment: MIC, H. influenzae ATCC 49247; format: cell-based; details: Haemophilus influenzae, ATCC49247
A. baumannii ATCC 17978 = experiment: MIC, A. baumannii ATCC 17978; format: cell-based; details: Acinetobacter baumannii, ATCC17978
[5] = system: P. aeruginosa NTUH-974 (MDR); experiment: MIC, P. aeruginosa NTUH-974 (MDR); format: cell-based
N. gonorrhoeae 612501 = experiment: MIC, N. gonorrhoeae 612501; format: cell-based; details: Neisseria gonorrhoeae
E. faecium ATCC 700221 = experiment: MIC, E. faecium ATCC 700221; format: cell-based; details: Enterococcus faecium, ATCC700221; read-out: MIC E. faecium ATCC 700221
E. coli JW5503 = experiment: MIC, E. coli JW5503; format: cell-based; details: Escherichia coli, JW5503, read-out: MIC E. coli JW5503
K. pneumoniae ATCC 43816 = experiment: MIC, K. pneumoniae ATCC 43816; format: cell-based; details: Klebsiella pneumoniae, ATCC43816
S. aureus ATCC 29213 = experiment: MIC, S. aureus ATCC 29213 + 50% HS; format: cell-based; details: Staphylococcus aureus, ATCC29213
[6] = system: S. aureus MRSA ATCC 33591; experiment: MIC, S. aureus MRSA ATCC 33591; format: cell-based; details: Staphylococcus aureus; read-out: MIC S. aureus MRSA ATCC 33591
S. pneumoniae ATCC 49619 = experiment: MIC, S. pneumoniae ATCC 49619; format: cell-based; details: Streptococcus pneumoniae, ATCC49619
[7] = system: Escherichia coli (ATCC25922); experiment: MIC, broth microdilution (CLSI), Escherichia coli ATCC25922
Protocol: Initial minimal inhibitory concentration (MIC) tests were made on two bacterial strains: • Escherichia coli (ATCC25922) • Staphylococcus aureus (ATCC25923).
Minimal Inhibitory Concentration (MIC)
MIC values were determined using the standard broth microdilution procedure based on the guidelines by the Clinical and Laboratory Standards Institute (CLSI). Briefly, the compounds were dissolved in DMSO to 10 mM. They were diluted in cation-adjusted Mueller-Hinton broth (CAMHB) to four times the highest concentration tested. A serial 2-fold dilution in CAMHB was done in microdilution plates. The inoculum of bacterial strain to be tested was prepared by making a suspension of colonies from an 18 to 24 hours old plate in CAMHB. The inoculum was diluted so that, after inoculation, each well contained approximately 5×10^5 CFU/mL. To a volume of 50 μl compound in CAMHB an equal volume of inoculum was added. The tray was sealed in a plastic bag and incubated at 35° C. for 16 to 20 hours. To aid in the detection of growth the dye resazurin was added to a final concentration 0.001% and incubated at room temperature for 1 h. Reduction of resazurin, and therefore bacterial growth, was seen as a change from blue to pink.

[8] = system: Staphylococcus aureus (ATCC25923); experiment: MIC, broth microdilution (CLSI), Staphylococcus aureus ATCC25923; details: ATCC25923, read-out: S. aureus ("Clinical") MIC
[9] = ATCC29213, Table 15, read-out: S. aureus ("wound") (MIC)
[10] = ATCC29213, Table 16, read-out: MIC S. aureus ATCC 29213
[11] = Pseudomonas aeruginosa, read-out: MIC P. aeruginosa NTUH-974 (MDR)
[12] = ATCC25922, read-out: E. coli MIC, Table 15, NI = No inhibition
[13] = ATCC25922, read-out: MIC E. coli ATCC 25922
[14] = ATCC25922, read-out: MIC E. coli ATCC 25922, Table 16

| Compound | IC50 [1] | MIC [2] | MIC [3] | MIC [4, 9] | MIC [4, 10] | MIC (H. influenzae ATCC 49247) | MIC (A. baumannii ATCC 17978) | MIC [5, 11] | MIC (N. gonorrhoeae 612501) | MIC (E. faecium ATCC 700221) | MIC (E. coli JW5503) | MIC (K. pneumoniae ATCC 43816) | MIC (S. aureus ATCC 29213) | MIC [6] | MIC (S. pneumoniae ATCC 49619) | MIC [7, 12] | MIC [7, 13] | MIC [8] | MIC [7, 14] | MIC ([5]; Pseudomonas aeruginosa; read-out: MIC P. aeruginosa NTUH-974 (MDR)) |
| --- | --- | --- | --- | --- | --- | --- | --- | --- | --- | --- | --- | --- | --- | --- | --- | --- | --- | --- | --- | --- |
| O=C(/C=C/c1ccc(F)cc1)Nc1cc(C(F)(F)F)cc2c1Nc1ccccc1S2 [compound 92, E-3-(4-fluorophenyl)-N-(3-(trifluoromethyl)-10H-phenothiazin-1-yl)acrylamide] | > 100 µM | 2 µg/mL (≈ 4.65 µM) | > 128 µg/mL | 1 µg/mL (≈ 2.32 µM) | 0.5 µg/mL (≈ 1.16 µM) | > 128 µg/mL | > 128 µg/mL | > 128 µg/mL | 0.25 µg/mL (≈ 0.581 µM) | 0.5 µg/mL (≈ 1.16 µM) | > 128 µg/mL | > 128 µg/mL | 128 µg/mL | 2 µg/mL (≈ 4.65 µM) | 8 µg/mL (≈ 18.6 µM) | > 100 µg/mL | > 128 µg/mL | 1 µg/mL (≈ 2.32 µM) | – | – |
| CN(C)CCCN1c2ccccc2Sc2cc(-c3cc4ccccc4[nH]3)ccc21 [compound 111, 3-(3-(1H-Indol-2-yl)-10H-phenothiazin-10-yl)-N,N-dimethylpropan-1-amine] | ~20 µM | 4 µg/mL (≈ 10 µM) | > 128 µg/mL | 3 µg/mL (≈ 7.51 µM) | 2 µg/mL (≈ 5.01 µM) | 16 µg/mL (≈ 40 µM) | 64 µg/mL (≈ 160 µM) | > 128 µg/mL | 2 µg/mL (≈ 5.01 µM) | 2 µg/mL (≈ 5.01 µM) | 4 µg/mL (≈ 10 µM) | > 128 µg/mL | 128 µg/mL | 4 µg/mL (≈ 10 µM) | 8 µg/mL (≈ 20 µM) | > 100 µg/mL | – | 3 µg/mL (≈ 7.51 µM) | 64 µg/mL (≈ 160 µM) | – |
| CN(C)CCCN1c2ccccc2Sc2cc(-c3cc4cc(C#N)ccc4[nH]3)ccc21 [compound 123, 2-(10-(3-(dimethylamino)propyl)-10H-phenothiazin-3-yl)-1H-indole-5-carbonitrile] | > 100 µM | 2 µg/mL (≈ 4.71 µM) | > 128 µg/mL | 2 µg/mL (≈ 4.71 µM) | 2 µg/mL (≈ 4.71 µM) | 16 µg/mL (≈ 37.7 µM) | 64 µg/mL (≈ 151 µM) | > 128 µg/mL | 1 µg/mL (≈ 2.36 µM) | 2 µg/mL (≈ 4.71 µM) | 4 µg/mL (≈ 9.42 µM) | > 128 µg/mL | 64 µg/mL | 8 µg/mL (≈ 18.8 µM) | 8 µg/mL (≈ 18.8 µM) | > 100 µg/mL | > 128 µg/mL | 2 µg/mL (≈ 4.71 µM) | – | – |
| NC1CCCC(CNc2cc(C(F)(F)F)cc3c2Nc2ccccc2S3)C1 (stereo not drawn) [compound 133, N-((3-Aminocyclohexyl)methyl)-3-(trifluoromethyl)-10H-phenothiazin-1-amine] | 19 µM | 8 µg/mL (≈ 20.3 µM) | 128 µg/mL (≈ 325 µM) | 81 µg/mL (≈ 206 µM) | 4 µg/mL (≈ 10.2 µM) | 16 µg/mL (≈ 40.7 µM) | 16 µg/mL (≈ 40.7 µM) | 128 µg/mL (≈ 325 µM) | 2 µg/mL (≈ 5.08 µM) | 4 µg/mL (≈ 10.2 µM) | 8 µg/mL (≈ 20.3 µM) | 32 µg/mL (≈ 81.3 µM) | 128 µg/mL | 4 µg/mL (≈ 10.2 µM) | 32 µg/mL (≈ 81.3 µM) | 13 µg/mL (≈ 33 µM) | – | 3 µg/mL (≈ 7.62 µM) | 32 µg/mL (≈ 81.3 µM) | – |
| NCCN1CCC(Nc2cc(C(F)(F)F)cc3c2Nc2ccccc2S3)CC1 [compound 140, N-(1-(2-Aminoethyl)piperidin-4-yl)-3-(trifluoromethyl)-10H-phenothiazin-1-amine] | 8 µM | 4 µg/mL (≈ 9.79 µM) | 64 µg/mL (≈ 157 µM) | 8 µg/mL (≈ 19.6 µM) | 4 µg/mL (≈ 9.79 µM) | 8 µg/mL (≈ 19.6 µM) | 8 µg/mL (≈ 19.6 µM) | – | 2 µg/mL (≈ 4.9 µM) | 4 µg/mL (≈ 9.79 µM) | 8 µg/mL (≈ 19.6 µM) | 8 µg/mL (≈ 19.6 µM) | 128 µg/mL | 4 µg/mL (≈ 9.79 µM) | 32 µg/mL (≈ 78.3 µM) | 7 µg/mL (≈ 17.1 µM) | – | 3 µg/mL (≈ 7.34 µM) | 32 µg/mL (≈ 78.3 µM) | 32 µg/mL (≈ 78.3 µM) |
